Residues, ends and D or L forms follow the SMILES beside them. *: point of attachment. 5FAM = O=C1OC2(c3ccc(O)cc3Oc3cc(O)ccc32)c2ccc(C(=O)*)cc21; X1 = O=C(O)C(C(=O)O)*
Molecular target: T1, SHP2 C‐SH2 domain (Homo sapiens, UniProt Q06124)
T1 construct: SHP2 N-SH2 domain (1–105), C-SH2 domain (106–220), PTP domain (224–541) and; His6 (pETM22 vector) (N, cleaved yes); made in house; host or cells: E. coli BL21(DE3)
T1 sequence (Q06124 106-220): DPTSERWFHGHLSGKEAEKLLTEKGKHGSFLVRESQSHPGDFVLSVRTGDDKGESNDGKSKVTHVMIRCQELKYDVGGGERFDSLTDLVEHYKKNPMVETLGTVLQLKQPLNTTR
Test: Fluorescence polarization (FP) binding assay, SHP2 C-SH2 domain
Conditions: 100 nM FAM-labelled peptide, increasing C-SH2 protein, 50 mM HEPES pH 7.5, 150 mM NaCl, 1 mM EDTA, 0.05% Tween 20, FP at 10 min, three independent experiments in technical triplicates, read-out: K D ± SEM, C‐SH2 (FP)
Protocol: buffer and stored in 5 mL binding buffer at 4°C. His-tagged 3C protease (0.5 mg; EMBL) was added to the pooled eluted fractions and dialysed using Spectra Por Dialysis Tubing (MWCO 6-8 kDa, 23 mm; Spectrum Labs) in 1 L of binding buffer at 4°C for 3 hours, then overnight in fresh buffer. A new column was prepared by loading 2 mL Ni-NTA Agarose (Invitrogen) as a 50% slurry in EtOH. The column was washed with 10 mL H2O to remove the EtOH and equilibrated with 10 mL binding buffer. The protein/3C protease mixture was loaded onto the column and incubated for 1 hour at 4°C on a rocker. The flow through containing the protein was collected, the column was washed with 100 mL binding buffer and the 3C protease was eluted with 5 mL elution buffer. Protein purification was monitored by SDS-PAGE using NuPAGE 4-12% Bis-Tris Protein Gels (Invitrogen) run in MOPS buffer (50 mM MOPS, 50 mM Tris-HCl pH 7.7, 1 mM EDTA, 0.1% SDS) followed by Coomassie staining using Coomassie Brilliant Blue (Roth). The purified protein was dialysed into the final storage buffer (50 mM HEPES pH 7.5, 150 mM NaCl, 2 mM DTT, 20% glycerol). Aliquots were prepared and stored at -80°C until required. […]
4. Fluorescence polarization
Fluorescence polarization (FP) was used to measure the binding of FAM-labelled peptides to the SHP2 C-SH2, SHP2 N-SH2, SHP2 PTP, CSK SH2 or Src SH2 domains. Each peptide was added to increasing concentrations of SHP2 C-SH2, SHP2 N-SH2, SHP2 PTP, CSK SH2 or Src SH2 protein in FP buffer (50 mM HEPES pH 7.5, 150 mM NaCl, 1 mM EDTA, 0.05% Tween 20) to give a final peptide […]
concentration of 100 nM in a final volume of 200 µL. For baseline subtraction, each peptide was added to FP buffer, instead of protein, with a final peptide concentration of 100 nM in a final volume of 200 µL. Samples were mixed gently then 3 x 60 µL of each sample was transferred into triplicate wells in a 96-well plate (OptiPlate-96 F Black; PerkinElmer). The FP was immediately measured on a Synergy H1 Microplate Reader (BioTek) with the excitation and emission monitored at 485 nm and 528 nm, respectively, over 30 minutes. FP values were automatically calculated by the Gen5 3.03 (BioTek) software associated with the microplate reader. Data were analysed in Excel 2016 by subtracting baseline values from FP values at 10 minutes. Data were then further analysed in GraphPad Prism 6 by plotting the baseline subtracted FP values against the protein concentration and fitting the data to a variable slope model of non-linear regression to obtain the KD values. Data are from three independent experiments, each performed in technical triplicates.
5. Isothermal titration calorimetry […]
Analysis Software (Malvern Panalytical). For the data analysis, a 1:1 binding stoichiometry between the Ac-ITSM(pTyr) and SH2 domain was assumed. ITC measurements were performed once.

Kd: 1.6 ± 0.388 µM
SMILES: CC[C@H](C)[C@H](NC(=O)[C@@H](NC(=O)[C@H](C)NC(=O)[C@H](Cc1ccc(OC(C(=O)O)C(=O)O)cc1)NC(=O)[C@H](CCC(=O)O)NC(=O)[C@@H](NC(=O)[C@H](CCC(N)=O)NC(=O)c1ccc2c(c1)C(=O)OC21c2ccc(O)cc2Oc2cc(O)ccc21)[C@@H](C)O)[C@@H](C)O)C(=O)N[C@@H](CCCCN)C(=O)N[C@@H](Cc1c[nH]cn1)C(=O)N1CCC[C@H]1C(N)=O [peptide 26] (5FAM-QTEY(X1)ATIKHP-NH2)

Source: PMC12118337, “Development of a Peptide Inhibitor Targeting the C‐SH2 Domain of the SHP2 Phosphatase” (Chembiochem, 2025)
